Consider 3 compounds from patent US11103512B2, “Crystalline form of (S)-[2-chloro-4-fluoro-5-(7-morpholin-4-yl-quinazolin-4-yl)phenyl]-(6-methoxy-pyridazin-3-yl)-methanol” (Merck Patent GmbH, priority 2017, dated 2021).

Values after ≈ are worked out from the molar mass of the structure shown. Where only a bound is given, the exact number is not on record here.

The target of series [1] is DNA-dependent protein kinase (DNA-PK) (Homo sapiens, UniProt P78527). As to conditions: background statement, no values; cited from earlier work.
Series [2] deals with DNA-PK autophosphorylation in cancer cell lines. As to conditions: background statement, no values; cited from earlier work.
Series [3] is described as follows: Thermal behaviour by DSC and TGA. The format is physicochemical. The following applies: DSC and TGA profiles. The protocol: By contrast, the amorphous material decomposes at 170° C. (FIG. 2). The crystalline material therefore lends itself to further processing that involves high temperatures, such as hot melt extrusion and melt granulation.
• Powder X-ray diffractions (XRPD) were obtained by standard techniques as described in the European Pharmacopeia 7th Edition chapter 2.9.33 (Cu-Kai radiation, λ=1.5406 Å, Stoe StadiP 611 KL transmission diffractometer, ambient temperature); and in particular • For the amorphous form: The XRPD measurement was performed in transmission geometry with Cu-Kα1 radiation on a Stoe StadiP 611 diffractometer equipped with Mythen1K Si-strip detector (PSD). Approximately 5-20 mg of the sample were prepared on a combinatorial 96-well-plate sample holder comprising a mostly amorphous Kapton® foil on the bottom of the wells. Measurement was carried out by setting following parameters: • angular range: −36°−36 °2θ folded to 0-36 °2θ • angular resolution: 0.03 °2θ • PSD step with: 4 °2θ • measurement time: 30 s/PSD-step • generator settings: 40 mA, 40 kV • For the crystalline Form I: The measurement was performed in transmission geometry with Cu-Kα1 radiation on a Stoe StadiP 611 diffractometer equipped with Mythen1K Si-strip detector (PSD). Approximately 10-100 mg of the sample were prepared between amorphous films. […]

Series [4] is described as follows: Solubility measurements in biorelevant media (24 h shake, HPLC). The series is classed as physicochemical.
Series [5] can be described thus: Water vapour sorption isotherm (DVS, 25° C.). The format is physicochemical. As to conditions: for water uptake / hygroscopic behaviour (in words): water vapour sorption isotherm, FIG. 3. An excerpt:
Form I can therefore be classified acc. to Ph. Eur. Criteria (section 5.11.) as not hygroscopic. The max. water uptake level (Δmmax at 98% rh) of Form I is <1% m/m. […] This non-hygroscpopic behaviour of Form I is advantageous both in case of using the material as a starting material, as it readily lends itself to storage, as well as using it “as is” in a pharmaceutical dosage form.
• Powder X-ray diffractions (XRPD) were obtained by standard techniques as described in the European Pharmacopeia 7th Edition chapter 2.9.33 (Cu-Kai radiation, λ=1.5406 Å, Stoe StadiP 611 KL transmission diffractometer, ambient temperature); and in particular • For the amorphous form: The XRPD measurement was performed in transmission geometry with Cu-Kα1 radiation on a Stoe StadiP 611 diffractometer equipped with Mythen1K Si-strip detector (PSD). Approximately 5-20 mg of the sample were prepared on a combinatorial 96-well-plate sample holder comprising a mostly amorphous Kapton® foil on the bottom of the wells. Measurement was carried out by setting following parameters: • angular range: −36°−36 °2θ folded to 0-36 °2θ • angular resolution: 0.03 °2θ • PSD step with: 4 °2θ • measurement time: 30 s/PSD-step • generator settings: 40 mA, 40 kV • For the crystalline Form I: The measurement was performed in transmission geometry with Cu-Kα1 radiation on a Stoe StadiP 611 diffractometer equipped with Mythen1K Si-strip detector (PSD). Approximately 10-100 mg of the sample were prepared between amorphous films. Measurement was carried out by setting following parameters: • angular range: 1°-41 °2θ • angular resolution: 0.015 °2θ • PSD step with: 0.49 °2θ • measurement time: 15 s/PSD-step • generator settings: 40 mA, 40 kV • DSC: • For the amorphous form: • Temperature modulated DSC (TOPEM®) was acquired on a Mettler-Toledo heat-flux Differential Scanning Calorimeter DSC 1 system. Approximately 0.5 mg sample amount were weighed accurately in a 40 μl Aluminium pan which was hermetically closed by a lid. The scan was carried out from 0° C. to 250° C. with a linear heating rate of 2 K/min, overlapped by a non-linear puls-modulated temperature programme with a pulse height of ±0.5 K and a stochastic pulse width from 15 s (min) to 45 s (max). Nitrogen purge gas at 50 mL/min was used. • For crystalline Form I: • DSC measurement was acquired on Mettler-Toledo heat-flux Differential Scanning Calorimeter system DSC 821e. Approximately 1-5 mg sample amount were weighed accurately in a 40 μl Aluminium pan with pierced lid. The scan was carried out from 25° C. to 350° C. with a linear heating rate of 5 K/min and a nitrogen purge gas at 50 mL/min. • TGA: • Sample was investigated on a Mettler-Toledo Thermogravimetric Analyser TGA 851 with autosampler, using a nitrogen inert gas atmosphere (flow 50 mL/min). Approximately 5-20 mg sample amount were weighed accurately in a 100 μl Aluminium pan and hermetically closed by Aluminium lids. Just before insertion to the oven the lid was pierced by a needle of the autosampler system. Scans were carried out from 25° C. to 350° C. at 5 K/min. The result was baseline-corrected with a blank run from an empty 100 μl Aluminium pan of the same type, using the identical temperature profile. • Water Vapour Sorption Isotherm: • Approximately 1-40 mg sample amount were weighed accurately into a 100 μl Al pan and hung into the sample position of the DVS instrument with microbalance and incubator (DVS-Intrinsic; Surface Measurement Systems, SMS). […]

As to `COc1ccc([C@@H](O)c2cc(-c3ncnc4cc(N5CCOCC5)ccc34)c(F)cc2Cl)nn1` [(S)-[2-chloro-4-fluoro-5-(7-morpholin-4-yl-quinazolin-4-yl)phenyl]-(6-methoxy-pyridazin-3-yl)-methanol], the “inhibition of DNA-PK activity (in words)” value in series [1] was “potent and selective inhibitor”. Also, the “inhibition of DNA-PK autophosphorylation (in words)” value in series [2] is recorded as “potent inhibition”.

For `COc1ccc([C@@H](O)c2cc(-c3ncnc4cc(N5CCOCC5)ccc34)c(F)cc2Cl)nn1` [Form I, (S)-[2-chloro-4-fluoro-5-(7-morpholin-4-yl-quinazolin-4-yl)phenyl]-(6-methoxy-pyridazin-3-yl)-methanol], the “melting/decomposition temperature (thermal stability)” value in series [3] is “above 200 °C”. The solubility at 24 h in series [4] (FaSSIF (fasted state simulated intestinal fluid), pH 6.5, thermodynamic from solid, FaSSIF, pH of medium 6.5, 37 °C) is 3 µg/mL (≈ 6.23 µM); in series [4] (FeSSIF (fed state simulated intestinal fluid), pH 5, thermodynamic from solid, FeSSIF, pH of medium 5.0, 37 °C), 17 ± 1 µg/mL (≈ 35.3 µM); in series [4] (SGF (simulated gastric fluid without pepsin), pH 1.2, simulated gastric fluid, thermodynamic from solid, SGF, pH of medium 1.2, 37 °C) it was 891 ± 33 µg/mL (≈ 1850 µM). Further, the “max. water uptake level (Δmmax at 98% rh)” value in series [5] (98% rh, 25° C.) is on record as under 1 % m/m. In addition, in series [5] (dm (80% rh−40% rh), 25° C.), the “hygroscopicity classification acc. to Ph. Eur. criteria (section 5.11.)” value was “not hygroscopic (dm (80% rh−40% rh)<0.2 wt %: not hygroscopic)”. Further, the water uptake levels in series [5] (relative humidity range 40-80% rh, 25° C.) is on record as under 1 % m/m.

As to `COc1ccc([C@@H](O)c2cc(-c3ncnc4cc(N5CCOCC5)ccc34)c(F)cc2Cl)nn1` [amorphous material, (S)-[2-chloro-4-fluoro-5-(7-morpholin-4-yl-quinazolin-4-yl)phenyl]-(6-methoxy-pyridazin-3-yl)-methanol], the “melting/decomposition temperature (thermal stability)” value in series [3] came to 170 °C. The “water uptake / hygroscopic behaviour (in words)” value in series [5] is listed as “significant water uptake”; in series [5] (listed as amorphous solid form), “hygroscopic”.
